According to patent US20250011318A1 (ARCUS BIOSCIENCES, INC., priority 2023, published 2025):

Experiments:
Cbl-b = biological target: T1, Cbl-b (Homo sapiens, UniProt Q13191); assay: Cbl-b probe displacement HTRF binding assay; conditions: 0.4 nM biotinylated Cbl-b, 150 nM BODIPY probe
T1 construct: biotin (biotinylated)
How it was run: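 Biotinylated Cbl-b (0.4 nM) preincubated 60 min at RT with compound (20-point 1:2 series, 10 μM top), then 150 nM BODIPY probe for 15 min, then streptavidin-terbium detection. Buffer: 20 mM Hepes, 150 mM NaCl, 0.01% Triton X-100, 0.5 mM TCEP, 0.01% BSA. Loss of HTRF signal gave IC50 via four-parameter fit.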

Jurkat cells = assay: IL-2 secretion assay in CD3/CD28-activated Jurkat cells (AlphaLISA); assay type: cell-based, human; conditions: Homo sapiens, CD3/CD28 T Cell Activator, 24 h, IL-2 AlphaLISA
How it was run: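 Jurkat cells (50,000/well) preincubated 1 h at 37° C with compound (16-point 1:2 series, final 10 μM to 300 pM) in Opti-MEM, then stimulated with CD3/CD28 activator for 24 h. Supernatant IL-2 read by AlphaLISA; EC50 from 4-parameter logistic fit.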

T1 sequence (Q13191 whole entry, species assumed): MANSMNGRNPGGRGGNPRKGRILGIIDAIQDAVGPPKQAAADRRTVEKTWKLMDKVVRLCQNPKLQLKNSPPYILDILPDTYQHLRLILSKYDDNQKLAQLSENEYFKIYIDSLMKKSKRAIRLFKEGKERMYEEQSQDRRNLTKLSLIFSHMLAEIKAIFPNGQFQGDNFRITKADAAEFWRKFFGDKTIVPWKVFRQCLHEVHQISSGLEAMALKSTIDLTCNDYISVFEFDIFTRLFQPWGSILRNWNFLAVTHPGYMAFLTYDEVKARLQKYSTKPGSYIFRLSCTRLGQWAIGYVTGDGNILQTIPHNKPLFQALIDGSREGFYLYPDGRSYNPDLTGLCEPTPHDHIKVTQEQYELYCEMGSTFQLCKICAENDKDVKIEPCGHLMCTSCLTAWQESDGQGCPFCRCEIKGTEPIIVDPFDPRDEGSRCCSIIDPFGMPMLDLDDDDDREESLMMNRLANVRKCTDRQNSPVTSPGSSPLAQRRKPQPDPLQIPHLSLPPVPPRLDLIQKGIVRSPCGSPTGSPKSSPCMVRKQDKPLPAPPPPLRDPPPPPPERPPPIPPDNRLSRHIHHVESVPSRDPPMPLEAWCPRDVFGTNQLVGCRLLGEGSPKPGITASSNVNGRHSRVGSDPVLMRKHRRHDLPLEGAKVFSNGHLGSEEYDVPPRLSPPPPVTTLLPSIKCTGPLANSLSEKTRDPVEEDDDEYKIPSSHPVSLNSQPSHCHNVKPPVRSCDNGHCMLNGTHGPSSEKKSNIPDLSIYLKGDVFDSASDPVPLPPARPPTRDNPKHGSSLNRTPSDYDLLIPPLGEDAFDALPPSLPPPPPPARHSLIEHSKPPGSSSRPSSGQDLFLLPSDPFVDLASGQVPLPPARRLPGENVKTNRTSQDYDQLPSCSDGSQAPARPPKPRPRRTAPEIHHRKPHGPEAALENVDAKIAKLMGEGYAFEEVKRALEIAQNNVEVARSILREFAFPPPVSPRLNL

COCCOCc1cc2ncn(-c3cc(-c4ccc(F)cc4-c4nncn4C)cc(C4CC4)n3)c(=O)c2[nH]1 [Example 38, 6-{6-cyclopropyl-4-[4-fluoro-2-(4-methyl-4H-1,2,4-triazol-3-yl)phenyl]-2-pyridyl}-2-[(2-methoxyethoxy)methyl]-1,6-dihydro-1,4,6-triaza-7-indenone]
IC50 (Cbl-b): < 100 nM | EC50 (Jurkat cells): 100 to 1000 nM

C[C@H]1CCCN(Cc2cc3c(C4CC4)cn(-c4cc(-c5ccc(F)cc5-c5cncn5C)cc(Cl)n4)c(=O)c3[nH]2)C1 [Example 23, 2-{[(S)-3-methyl-1-piperidyl]methyl}-6-{6-chloro-4-[4-fluoro-2-(1-methyl-5-imidazolyl)phenyl]-2-pyridyl}-4-cyclopropyl-1,6-dihydro-1,6-diaza-7-indenone]
IC50 (Cbl-b): 1000 to 5000 nM | EC50 (Jurkat cells): > 5000 nM

Cn1cnnc1-c1cc(F)ccc1-c1cc(C2CC2)nc(-n2cc(C#N)c3cc([C@H](N)C(F)(F)F)[nH]c3c2=O)c1 [Example 98, 2-[(S)-1-amino-2,2,2-trifluoroethyl]-6-{6-cyclopropyl-4-[4-fluoro-2-(4-methyl-4H-1,2,4-triazol-3-yl)phenyl]-2-pyridyl}-7-oxo-1,6-dihydro-1,6-diaza-4-indenecarbonitrile]
IC50 (Cbl-b): < 100 nM | EC50 (Jurkat cells): < 100 nM

COCCNCc1cc2ncn(-c3cc(-c4ccc(F)cc4-c4ncnn4C)cc(C4CC4)n3)c(=O)c2[nH]1 [Example 118, 3-[6-cyclopropyl-4-[4-fluoro-2-(2-methyl-1,2,4-triazol-3-yl)phenyl]-pyridin-2-yl]-6-[(2-methoxyethylamino)methyl]-5H-pyrrolo[3,2-d]pyrimidin-4-one]
IC50 (Cbl-b): < 100 nM | EC50 (Jurkat cells): 100 to 1000 nM

C[C@H]1CCCN(Cc2cc3c(C4CC4)cn(-c4cccc(-c5ccc(F)cc5-c5nccn5C)c4)c(=O)c3[nH]2)C1 [Example 17, 4-cyclopropyl-6-[3-[4-fluoro-2-(1-methylimidazol-2-yl)phenyl]phenyl]-2-[[(3S)-3-methylpiperidin-1-yl]methyl]-1H-pyrrolo[2,3-c]pyridin-7-one]
IC50 (Cbl-b): < 100 nM | EC50 (Jurkat cells): 100 to 1000 nM

Cn1ccnc1-c1cc(F)ccc1-c1cc(C2CC2)nc(-n2cc(C3CC3)c3cc(CN4CCC[C@H](O)C4)[nH]c3c2=O)c1 [Example 58, 2-{[(S)-3-hydroxy-1-piperidyl]methyl}-4-cyclopropyl-6-{6-cyclopropyl-4-[4-fluoro-2-(1-methyl-2-imidazolyl)phenyl]-2-pyridyl}-1,6-dihydro-1,6-diaza-7-indenone]
IC50 (Cbl-b): < 100 nM | EC50 (Jurkat cells): < 100 nM

Cn1cnnc1-c1cc(F)ccc1-c1cc(C2CC2)nc(-n2cnc3cc(CNCC(F)(F)F)[nH]c3c2=O)c1 [Example 33, 6-{6-cyclopropyl-4-[4-fluoro-2-(4-methyl-4H-1,2,4-triazol-3-yl)phenyl]-2-pyridyl}-2-[(2,2,2-trifluoroethylamino)methyl]-1,6-dihydro-1,4,6-triaza-7-indenone]
IC50 (Cbl-b): < 100 nM | EC50 (Jurkat cells): 100 to 1000 nM

COCCNCc1cc2ncn(-c3cc(-c4ccc(F)cc4-n4nccc4C(F)(F)F)cc(C4CC4)n3)c(=O)c2[nH]1 [Example 104, 3-[6-cyclopropyl-4-[4-fluoro-2-[5-(trifluoromethyl)pyrazol-1-yl]phenyl]pyridin-2-yl]-6-[(2-methoxyethylamino)methyl]-5H-pyrrolo[3,2-d]pyrimidin-4-one]
IC50 (Cbl-b): < 100 nM | EC50 (Jurkat cells): 100 to 1000 nM

CC(c1cc2c(S(C)(=O)=O)cn(-c3cc(-c4ccc(C#N)cc4-c4nccn4C)cc(C4CC4)n3)c(=O)c2[nH]1)N1CCO[C@H](C)C1 (mixture of isomers) [Example 102, 4-[2-(2-{1-[(R)-2-methyl-4-morpholinyl]ethyl}-4-mesyl-7-oxo-1,6-dihydro-1,6-diaza-6-indenyl)-6-cyclopropyl-4-pyridyl]-3-(1-methyl-2-imidazolyl)benzonitrile]
IC50 (Cbl-b): < 100 nM | EC50 (Jurkat cells): < 100 nM

Cc1ccnnc1-c1cc(C#N)ccc1-c1cc(C2CC2)nc(-n2cc(C3CC3)c3cc(CNC4(CO)CCC4)[nH]c3c2=O)c1 [Example 76, 4-[2-Cyclopropyl-6-[4-cyclopropyl-2-[[[1-(hydroxymethyl)cyclobutyl]-amino]methyl]-7-oxo-1H-pyrrolo[2,3-c]pyridin-6-yl]pyridin-4-yl]-3-(4-methylpyridazin-3-yl)benzonitrile]
IC50 (Cbl-b): < 100 nM | EC50 (Jurkat cells): < 100 nM

COCCNCc1cc2c(C3CC3)cn(-c3cc(-c4ccc(F)cc4-c4nc(C#N)cn4C)cc(C4CC4)n3)c(=O)c2[nH]1 [Example 110, 2-[2-[2-cyclopropyl-6-[4-cyclopropyl-2-[(2-methoxyethylamino)methyl]-7-oxo-1H-pyrrolo[2,3-c]pyridin-6-yl]pyridin-4-yl]-5-fluorophenyl]-1-methylimidazole-4-carbonitrile]
IC50 (Cbl-b): < 100 nM | EC50 (Jurkat cells): < 100 nM

Cn1ccnc1-c1cc(F)ccc1-c1cc(C2CC2)nc(-n2cc(C3CC3)c3cc(CN[C@H]4CCOC4)[nH]c3c2=O)c1 [Example 59, 2-{[(S)-tetrahydro-3-furylamino]methyl}-4-cyclopropyl-6-{6-cyclopropyl-4-[4-fluoro-2-(1-methyl-2-imidazolyl)phenyl]-2-pyridyl}-1,6-dihydro-1,6-diaza-7-indenone]
IC50 (Cbl-b): < 100 nM | EC50 (Jurkat cells): < 100 nM

Cc1cccnc1-c1cc(C#N)ccc1-c1cc(C2CC2)nc(-n2cc(C3CC3)c3cc(CN4CCC[C@H](C)C4)[nH]c3c2=O)c1 [Example 74, 4-[2-cyclopropyl-6-[4-cyclopropyl-2-[[(3S)-3-methylpiperidin-1-yl]methyl]-7-oxo-1H-pyrrolo[2,3-c]pyridin-6-yl]pyridin-4-yl]-3-(3-methylpyridin-2-yl)benzonitrile]
IC50 (Cbl-b): < 100 nM | EC50 (Jurkat cells): 100 to 1000 nM

CNCCN(C)c1cc(-c2ccc(C#N)cc2-c2nncn2C)cc(-n2cc(C3CC3)c3cc(CN4CCC[C@H](C)C4)[nH]c3c2=O)n1 [Example 3, 4-(2-{N-methyl[2-(methylamino)ethyl]amino}-6-(2-{[(S)-3-methyl-1-piperidyl]methyl}-4-cyclopropyl-7-oxo-1,6-dihydro-1,6-diaza-6-indenyl)-4-pyridyl)-3-(4-methyl-4H-1,2,4-triazol-3-yl)benzonitrile]
IC50 (Cbl-b): 100 to 1000 nM | EC50 (Jurkat cells): 1000 to 5000 nM

Cn1cnnc1-c1cc(F)ccc1-c1cc(C2CC2)nc(-n2cnc3cc(CNCCOC(F)(F)F)[nH]c3c2=O)c1 [Example 30, 6-{6-cyclopropyl-4-[4-fluoro-2-(4-methyl-4H-1,2,4-triazol-3-yl)phenyl]-2-pyridyl}-2-[(2-trifluoromethoxyethylamino)methyl]-1,6-dihydro-1,4,6-triaza-7-indenone]
IC50 (Cbl-b): < 100 nM | EC50 (Jurkat cells): 100 to 1000 nM

C[C@H]1CCCN(Cc2cc3c(C4CC4)cn(-c4cc(-c5ccc(F)cc5-c5nncn5C)cc(O)n4)c(=O)c3[nH]2)C1 [Example 7, 2-{[(S)-3-methyl-1-piperidyl]methyl}-4-cyclopropyl-6-{4-[4-fluoro-2-(4-methyl-4H-1,2,4-triazol-3-yl)phenyl]-6-hydroxy-2-pyridyl}-1,6-dihydro-1,6-diaza-7-indenone]
IC50 (Cbl-b): 100 to 1000 nM | EC50 (Jurkat cells): 1000 to 5000 nM

Cn1cnnc1-c1cc(F)ccc1-c1cc(C2CC2)nc(-n2cc(C#N)c3cc(CC4(O)CCCCC4)[nH]c3c2=O)c1 [Example 96, 6-{6-cyclopropyl-4-[4-fluoro-2-(4-methyl-4H-1,2,4-triazol-3-yl)phenyl]-2-pyridyl}-2-[(1-hydroxycyclohexyl)methyl]-7-oxo-1,6-dihydro-1,6-diaza-4-indenecarbonitrile]
IC50 (Cbl-b): < 100 nM | EC50 (Jurkat cells): < 100 nM

COc1ccc(-c2cc(C3CC3)nc(-n3cc(C4CC4)c4cc(CN5CCC[C@H](C)C5)[nH]c4c3=O)c2)c(-c2nncn2C)c1 [Example 5, 2-{[(S)-3-Methyl-1-piperidyl]methyl}-4-cyclopropyl-6-{6-cyclopropyl-4-[4-methoxy-2-(4-methyl-4H-1,2,4-triazol-3-yl)phenyl]-2-pyridyl}-1,6-dihydro-1,6-diaza-7-indenone]
IC50 (Cbl-b): < 100 nM | EC50 (Jurkat cells): < 100 nM

Cn1cnnc1-c1cc(F)ccc1-c1cc(C2CC2)nc(-n2cc(C(F)(F)F)c3nc(C4CCC4)[nH]c3c2=O)c1 [Example 40, 2-Cyclobutyl-5-[6-cyclopropyl-4-[4-fluoro-2-(4-methyl-1,2,4-triazol-3-yl)phenyl]pyridin-2-yl]-7-(trifluoromethyl)-3H-imidazo[4,5-c]pyridin-4-one]
IC50 (Cbl-b): < 100 nM | EC50 (Jurkat cells): < 100 nM

Cn1cnnc1-c1cc(F)ccc1-c1cc(C2CC2)nc(-n2cnc3cc(CC4CCOCC4)[nH]c3c2=O)c1 [Example 122, 3-[6-cyclopropyl-4-[4-fluoro-2-(4-methyl-1,2,4-triazol-3-yl)phenyl]pyridin-2-yl]-6-(oxan-4-ylmethyl)-5H-pyrrolo[3,2-d]pyrimidin-4-one]
IC50 (Cbl-b): < 100 nM | EC50 (Jurkat cells): 100 to 1000 nM

Cn1cnnc1-c1cc(F)ccc1-c1cc(C2CC2)nc(-n2cc(C(F)(F)F)c3nc(C4CC4)[nH]c3c2=O)c1 [Example 39, 2-cyclopropyl-5-[6-cyclopropyl-4-[4-fluoro-2-(4-methyl-1,2,4-triazol-3-yl)phenyl]pyridin-2-yl]-7-(trifluoromethyl)-3H-imidazo[4,5-c]pyridin-4-one]
IC50 (Cbl-b): < 100 nM | EC50 (Jurkat cells): < 100 nM

C[C@@H]1CN(Cc2cc3c(C4CC4)cn(-c4cc(-c5c(F)cc(F)cc5-c5nccn5C)cc(C5CC5)n4)c(=O)c3[nH]2)CCO1 [Example 65, 2-{[(R)-2-methyl-4-morpholinyl]methyl}-4-cyclopropyl-6-{6-cyclopropyl-4-[4,6-difluoro-2-(1-methyl-2-imidazolyl)phenyl]-2-pyridyl}-1,6-dihydro-1,6-diaza-7-indenone]
IC50 (Cbl-b): < 100 nM | EC50 (Jurkat cells): < 100 nM
